# Assay results: ChEMBL document CHEMBL5257106, “Design, synthesis, and biological evaluation of novel HDAC inhibitors with a 3-(benzazol-2-yl)quinoxaline framework” (Bioorg Med Chem Lett, 2023)
# Experiments:
# [1] = Cytotoxicity against HUVEC cells assessed as inhibition of cell growth by MTT assay; settings: human
# A2780 = assay: Antiproliferative activity against human A2780 cells assessed as inhibition of cell growth by MTT assay; format: functional, cell-based
# HCT-116 [2] = assay: Antiproliferative activity against human HCT-116 cells assessed as inhibition of cell growth by MTT assay; format: functional, cell-based
# MCF7 = assay: Antiproliferative activity against human MCF7 cells assessed as inhibition of cell growth by MTT assay; format: functional, cell-based
# PANC-1 = assay: Antiproliferative activity against human PANC-1 cells assessed as inhibition of cell growth by MTT assay; format: functional, cell-based
# HCT-116 [3] = assay: Induction of apoptosis in human HCT-116 cells assessed as necrotic cells at 1 uM incubated for 24 hrs by Annexin V-FITC/PI staining based flow cytometry analysis (reference value: 0.00%); format: functional
# HCT-116 [4] = assay: Induction of cell cycle arrest in human HCT-116 assessed as S phase cells at 1 uM incubated for 48 hrs by flow cytometric analysis (reference value: 12.79%); format: functional
# HCT-116 [5] = assay: Induction of cell cycle arrest in human HCT-116 assessed as decrease in G0/G1 phase cells at 1 uM incubated for 48 hrs by flow cytometric analysis (reference value: 63.51%); format: functional; parameters: scale not given: the % may be the effect or the level left
# HCT-116 [6] = assay: Induction of apoptosis in human HCT-116 cells assessed as total apoptotic cells at 1 uM incubated for 24 hrs by Annexin V-FITC/PI staining based flow cytometry analysis (reference value: 6.823%); format: functional
# HCT-116 [7] = assay: Induction of apoptosis in human HCT-116 cells assessed as late apoptotic cells at 1 uM incubated for 24 hrs by Annexin V-FITC/PI staining based flow cytometry analysis (reference value: 0.323%); format: functional
# HCT-116 [8] = assay: Induction of apoptosis in human HCT-116 cells assessed as viable cells at 1 uM incubated for 24 hrs by Annexin V-FITC/PI staining based flow cytometry analysis (reference value: 93.2%); format: functional
# HCT-116 [9] = assay: Induction of apoptosis in human HCT-116 cells assessed as early apoptotic cells at 1 uM incubated for 24 hrs by Annexin V-FITC/PI staining based flow cytometry analysis (reference value: 6.50%); format: functional
# HCT-116 [10] = assay: Induction of cell cycle arrest in human HCT-116 assessed as increase in G2/M phase cells at 1 uM incubated for 48 hrs by flow cytometric analysis (reference value: 23.70%); format: functional
# K562 = assay: Antiproliferative activity against human K562 cells assessed as inhibition of cell growth by MTT assay; format: functional, cell-based
# RS4-11 = assay: Antiproliferative activity against human RS4-11 cells assessed as inhibition of cell growth by MTT assay; format: functional, cell-based
# HL-60 = assay: Antiproliferative activity against human HL-60 cells assessed as inhibition of cell growth by MTT assay; format: functional, cell-based
Structure (SMILES),IC50 [1] [µM],IC50 (A2780) [µM],IC50 (HCT-116 [2]) [µM],IC50 (MCF7) [µM],IC50 (PANC-1) [µM],Activity (HCT-116 [3]) [%],Activity (HCT-116 [4]) [%],Activity (HCT-116 [5]) [%],Activity (HCT-116 [6]) [%],Activity (HCT-116 [7]) [%],Activity (HCT-116 [8]) [%],Activity (HCT-116 [9]) [%],Activity (HCT-116 [10]) [%],IC50 (K562) [µM],IC50 (RS4-11) [µM],IC50 (HL-60) [µM]
Nc1ccccc1NC(=O)CCCCCCCNc1nc2ccccc2nc1-c1nc2ccccc2o1,21.5,7.13,9.08,12.5,10.5,,,,,,,,,,,
O=C(CCCCCCC(=O)Nc1ccccc1)NO [VORINOSTAT],,,,,,0.146,11.02,58.11,41.49,6.59,58.4,34.9,30.87,,,
Nc1ccccc1NC(=O)CCCCCNc1nc2ccccc2nc1-c1nc2ccccc2o1,15.3,12.6,9.94,9.36,11.2,,,,,,,,,,,
O=C(CCCCCNc1nc2ccccc2nc1-c1nc2ccccc2o1)NO,16.4,4.07,2.44,3.69,1.92,,,,,,,,,,,
O=C(CCCNc1nc2ccccc2nc1-c1nc2ccccc2o1)NO,24,6.29,4.59,4.98,3.68,,,,,,,,,,,
Nc1ccccc1NC(=O)CCCNc1nc2ccccc2nc1-c1nc2ccccc2o1,27.2,23.9,17.2,33.5,21.6,,,,,,,,,,,
Nc1ccccc1NC(=O)CCCCCCNc1nc2ccccc2nc1-c1nc2ccccc2o1,16.7,17.9,6.51,7.33,11,,,,,,,,,,,
O=C(CCCCCCCNc1nc2ccccc2nc1-c1nc2ccccc2o1)NO,17.4,3.27,3.04,1.52,2.87,,,,,,,,,0.89,0.89,0.89
